Reference: patent US20240101570A1 (AMGEN INC., priority 2020, published 2024)
Like-named read-outs stand apart in the source and are kept apart here.

Experiments:
HCT116 WT cells = test: HCT116 WT cell proliferation / viability (CellTiter-Glo, 6 days); assay type: cell-based; details: HCT116 WT cells, 6 days, CellTiter-Glo, read-out: HCT-116 WT IC50
Outline: (§1)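 Viability read by CellTiter-Glo after 6-day compound exposure of MTAP-null and wild-type HCT116 cells grown in RPMI 1640 with 10% FBS. Dosing used 1:3 steps from 1 or 10 μM (8-9 points) or 1:2 steps from 10 or 50 μM (22 points); IC50 taken where fitted curve crosses 50% of control.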

HCT116 MTAP null cells = test: HCT116 MTAP null cell proliferation / viability (CellTiter-Glo, 6 days); assay type: cell-based; details: for IC50: HCT116 MTAP null cells, 6 days, CellTiter-Glo, read-out: HCT-116 MTAP null IC50; for potency of enantiomer relative to the other enantiomer, measured by IC50 in HCT116 MTAP null cell viability assay: comparison of the two SFC-separated enantiomers
Outline: as §1

| SMILES | IC50 (HCT116 WT cells; Homo sapiens, HCT-116, 144 h) | IC50 (HCT116 MTAP null cells; HCT116-MTAP null, 144 h) | potency of enantiomer relative to the other enantiomer, measured by IC50 in HCT116 MTAP null cell viability assay (HCT116 MTAP null cells) | IC50 (HCT116 WT cells) | IC50 (HCT116 MTAP null cells) |
| --- | --- | --- | --- | --- | --- |
| C[C@@H](CF)N(Cc1ccc(C#N)cn1)C(=O)c1ccc2nc(N)c3c(c2c1)COC3 (single isomer, unassigned) [Example 578] | 4930 nM | 338 nM | less potent | – | – |
| CC(C)CN(Cc1ccc(C(F)(F)F)cn1)C(=O)c1ccc2nc(N)c3c(c2c1)CO[C@H]3CO (single isomer, unassigned) [Example 579] | 5620 nM | 348 nM | – | – | – |
| CC(C)CN(Cc1ccc(C(F)(F)F)cn1)C(=O)c1ccc2nc(N)c3c(c2c1)CO[C@@H]3CO (single isomer, unassigned) [Example 580] | 10800 nM | 321 nM | – | – | – |
| N#CC[C@H](C1CC1)N(Cc1ccc(C#N)cn1)C(=O)c1ccc2nc(N)c3c(c2c1)COC3 (single isomer, unassigned) [Example 581] | 10200 nM | 809 nM | – | – | – |
| N#CC[C@@H](C1CC1)N(Cc1ccc(C#N)cn1)C(=O)c1ccc2nc(N)c3c(c2c1)COC3 (single isomer, unassigned) [Example 582] | 558 nM | 36 nM | – | – | – |
| CO[C@@H]1CCOC[C@H]1N(Cc1ccc(C#N)c(C)n1)C(=O)c1ccc2nc(N)c3c(c2c1)COC3 (single isomer, unassigned) [Example 583] | – | – | – | 4820 nM | 173 nM |
| CO[C@@H]1COCC[C@H]1N(Cc1ccc(C(F)(F)F)cn1)C(=O)c1ccc2nc(N)c3c(c2c1)COC3 (single isomer, unassigned) [Example 584] | 164 nM | 14 nM | – | – | – |
| CO[C@@H]1CCOC[C@H]1N(Cc1ccc(C(F)(F)F)cn1)C(=O)c1ccc2nc(N)c3c(c2c1)COC3 (single isomer, unassigned) [Example 586] | 150 nM | 12 nM | – | – | – |
| CO[C@H]1CCOC[C@@H]1N(Cc1ccc(C(F)(F)F)cn1)C(=O)c1ccc2nc(N)c3c(c2c1)COC3 (single isomer, unassigned) [Example 587] | 1710 nM | 76 nM | – | – | – |
| CO[C@@H]1CCOC[C@H]1N(Cc1ccc(C#N)c(C)n1)C(=O)c1ccc2nc(N)c3c(c2c1)COC3 (single isomer, unassigned) [Example 588] | – | – | – | 1950 nM | 79 nM |
| C[C@H](c1ccc(C(F)(F)F)cn1)N(C(=O)c1cc2c3c(c(N)nc2cn1)[C@@H](C)OC3)C1CC1 (single isomer, unassigned) [Example 589] | 815 nM | 29 nM | – | – | – |
| C[C@@H]1OCc2c1c(N)nc1cnc(C(=O)N(C3CC3)[C@H](C)c3ccc(C(F)(F)F)cn3)cc21 (single isomer, unassigned) [Example 590] | > 50000 nM | 2230 nM | – | – | – |
| Cc1cc2nc(N)c3cnn(C)c3c2cc1C(=O)N(C)[C@@H](C)c1ccc(F)cn1 (single isomer, unassigned) [Example 591] | 32100 nM | 563 nM | – | – | – |
| Cc1cc2nc(N)c3cnn(C)c3c2cc1C(=O)N(C)[C@H](C)c1ccc(F)cn1 (single isomer, unassigned) [Example 592] | 2410 nM | 25 nM | – | – | – |
| C[C@@H](c1ccc(F)cn1)N(C)C(=O)c1cc2c(cc1Cl)nc(N)c1cnn(C)c12 (single isomer, unassigned) [Example 594] | 29100 nM | 638 nM | – | – | – |
| C[C@H](c1ncc(C(F)(F)F)cc1F)N(C)C(=O)c1cc2c3c(c(N)nc2cc1F)COC3 (single isomer, unassigned) [Example 595] | 676 nM | 10 nM | – | – | – |
| CCN(Cc1ccc(C(F)(F)F)cn1)C(=O)c1ccc2nc(N)c3c(c2c1)CO[C@H]3CF (single isomer, unassigned) [Example 596] | 37300 nM | 888 nM | – | – | – |
| C[C@H]1OCc2c1c(N)nc1cnc(C(=O)N(C)Cc3ccc(Br)cn3)cc21 (single isomer, unassigned) [Example 597] | 15200 nM | 200 nM | – | – | – |
| C[C@H](c1ccc(C(F)(F)F)cc1)N(C)C(=O)c1cc2c(cn1)nc(N)c1cnn(C)c12 (single isomer, unassigned) [Example 598] | 415 nM | 8 nM | – | – | – |
| C[C@@H](c1ccc(C(F)(F)F)cc1)N(C)C(=O)c1cc2c(cn1)nc(N)c1cnn(C)c12 (single isomer, unassigned) [Example 599] | 27200 nM | 536 nM | – | – | – |
| C[C@H](c1ccc(C(F)(F)F)cn1)N(C)C(=O)c1ccc2nc(N)c3cnn(C)c3c2c1 (single isomer, unassigned) [Example 600] | 663 nM | 18 nM | – | – | – |
| C[C@@H](c1ccc(C(F)(F)F)cn1)N(C)C(=O)c1ccc2nc(N)c3cnn(C)c3c2c1 (single isomer, unassigned) [Example 601] | 21200 nM | 997 nM | – | – | – |
| C[C@H](c1ccc(C(F)(F)F)cn1)N(C)C(=O)c1cc2c(cc1F)nc(N)c1cnn(C)c12 (single isomer, unassigned) [Example 602] | 209 nM | 6 nM | – | – | – |
| C[C@@H](c1ccc(C(F)(F)F)cn1)N(C)C(=O)c1cc2c(cc1F)nc(N)c1cnn(C)c12 (single isomer, unassigned) [Example 603] | 11800 nM | 276 nM | – | – | – |
| C[C@H](c1ccc(F)cn1)N(C)C(=O)c1ccc2nc(N)c3cnn(C)c3c2c1 (single isomer, unassigned) [Example 604] | 24600 nM | 238 nM | – | – | – |
| C[C@H](c1ccc(C(F)(F)F)nn1)N(C)C(=O)c1cc2c(cc1F)nc(N)c1cnn(C)c12 (single isomer, unassigned) [Example 605] | 793 nM | 14 nM | – | – | – |

Results, then the compound that gave them:

| IC50 (HCT116 WT cells; Homo sapiens, HCT-116, 144 h) | IC50 (HCT116 MTAP null cells; HCT116-MTAP null, 144 h) | potency of enantiomer relative to the other enantiomer, measured by IC50 in HCT116 MTAP null cell viability assay (HCT116 MTAP null cells) | IC50 (HCT116 WT cells) | IC50 (HCT116 MTAP null cells) | SMILES |
| --- | --- | --- | --- | --- | --- |
| 263 nM | 19 nM | more potent | – | – | COc1ccc(CN(C(=O)c2ccc3nc(N)c4c(c3c2)CCC4)[C@H](C)c2ncccn2)nn1 (single isomer, unassigned) [Example 646] |
| 4200 nM | 673 nM | less potent | – | – | COc1ccc(CN(C(=O)c2ccc3nc(N)c4c(c3c2)CCC4)[C@@H](C)c2ncccn2)nn1 (single isomer, unassigned) [Example 647] |
| 2500 nM | 279 nM | – | – | – | C[C@@H](c1ncccn1)N(Cc1ccc(C(F)(F)F)nn1)C(=O)c1ccc2nc(N)c3c(c2c1)CCC3 (single isomer, unassigned) [Example 648] |
| 181 nM | 14 nM | – | – | – | C[C@H](c1ncccn1)N(Cc1ccc(C(F)(F)F)nn1)C(=O)c1ccc2nc(N)c3c(c2c1)CCC3 (single isomer, unassigned) [Example 649] |
| 811 nM | 53 nM | – | – | – | COC[C@H](C1CC1)N(Cc1ccc(Br)nn1)C(=O)c1ccc2nc(N)c3sccc3c2c1 (single isomer, unassigned) [Example 650] |
| 3520 nM | 234 nM | – | – | – | COC[C@H](C1CC1)N(Cc1ccc(Br)nn1)C(=O)c1cnc2nc(N)c3c(c2c1)COC3 (single isomer, unassigned) [Example 651] |
| > 10000 nM | 7070 nM | – | – | – | C[C@H](CF)N(Cc1ccc(C#N)cn1)C(=O)c1cc2c3c(c(N)nc2cn1)COC3 (single isomer, unassigned) [Example 820] |
| > 50000 nM | 4190 nM | – | – | – | CCN(C(=O)c1ccc2nc(N)c3c(c2c1)COC3)[C@@H](C)c1ccc(C(F)(F)F)cn1 (single isomer, unassigned) [Example 821] |
| 12000 nM | 323 nM | – | – | – | CCN(C(=O)c1ccc2nc(N)c3c(c2c1)COC3)[C@H](C)c1ccc(C(F)(F)F)cn1 (single isomer, unassigned) [Example 822] |
| 16200 nM | 528 nM | – | – | – | CCN(C(=O)c1cc2c3c(c(N)nc2cn1)COC3)[C@H](C)c1ccc(C(F)(F)F)cn1 (single isomer, unassigned) [Example 823] |
| 26300 nM | 2390 nM | – | – | – | CCN(C(=O)c1cc2c3c(c(N)nc2cn1)COC3)[C@@H](C)c1ccc(C(F)(F)F)cn1 (single isomer, unassigned) [Example 824] |
| 276 nM | 22 nM | – | – | – | C[C@H](c1ccc(C(F)(F)F)cn1)N(C(=O)c1cc2c3c(c(N)nc2cn1)COC3)c1cnn(C)c1 (single isomer, unassigned) [Example 825] |
| 27100 nM | 6720 nM | – | – | – | C[C@@H](c1ccc(C(F)(F)F)cn1)N(C(=O)c1cc2c3c(c(N)nc2cn1)COC3)c1cnn(C)c1 (single isomer, unassigned) [Example 826] |
| 47200 nM | 1250 nM | – | – | – | C[C@@H]1OCc2c1c(N)nc1cnc(C(=O)N(Cc3ccc(C(F)(F)F)cn3)c3cnn(C)c3)cc21 (single isomer, unassigned) [Example 827] |
| 294 nM | 26 nM | – | – | – | C[C@H]1OCc2c1c(N)nc1cnc(C(=O)N(Cc3ccc(C(F)(F)F)cn3)c3cnn(C)c3)cc21 (single isomer, unassigned) [Example 828] |
| > 50000 nM | 7790 nM | – | – | – | C[C@@H]1OCc2c1c(N)nc1cnc(C(=O)N(Cc3ccc(C(F)(F)F)nn3)C3CCC3)cc21 (single isomer, unassigned) [Example 829] |
| 2970 nM | 80 nM | – | – | – | C[C@H]1OCc2c1c(N)nc1cnc(C(=O)N(Cc3ccc(C(F)(F)F)nn3)C3CCC3)cc21 (single isomer, unassigned) [Example 830] |
| 31700 nM | 2570 nM | – | – | – | CC(C)N(C(=O)c1ccc2nc(N)c3c(c2c1)COC3)[C@@H](C)c1ccc(C(F)(F)F)cn1 (single isomer, unassigned) [Example 831] |
| 12600 nM | 454 nM | – | – | – | CC(C)N(C(=O)c1ccc2nc(N)c3c(c2c1)COC3)[C@H](C)c1ccc(C(F)(F)F)cn1 (single isomer, unassigned) [Example 832] |
